Data: patent US9512075B2 (OKAYAMA UNIVERSITY, priority 2012, dated 2016)
≈ marks a conversion by molar mass, not a printed value. Read-outs that look alike come from different tables or passages of the source.

What was measured:
Format in all cases: cell-based
[1] = tested on: Staphylococcus aureus Smith strain; test: MIC for Staphylococcus aureus Smith strain; settings: read-out: MIC Straphyrococcus aureus Smith
[2] = tested on: Clostridium difficile JCM1296 strain; test: microbe, parasite or virus in culture; settings: for MIC: Clostridioides difficile, JCM1296, read-out: MIC Clostridium difficile JCM1296
[3] = tested on: Staphylococcus aureus 209P strain; test: MIC for Staphylococcus aureus 209P strain; settings: for MIC: Staphylococcus aureus, read-out: MIC Straphyrococcus aureus 209P
[4] = tested on: Enterococcus faecalis 5038 strain; test: MIC for Enterococcus faecalis 5038 strain; settings: read-out: MIC Enterococcus faecalis 5038
[5] = tested on: Enterococcus faecalis NCTC12201 strain (vancomycin-resistant Enterococcus: VRE); test: MIC for Enterococcus faecalis NCTC12201 strain (VRE); settings: read-out: MIC Enterococcus faecalis NCTC 12201 (VRE)
[6] = tested on: Staphylococcus aureus MRSA No. 17 (methicillin-resistant Staphylococcus aureus: MRSA); test: MIC for Staphylococcus aureus MRSA No. 17; settings: read-out: MIC Straphyrococcus aureus MRSA No. 17 (MRSA)
[7] = tested on: Escherichia coli K-12 strain; test: MIC for Escherichia coli K-12 strain; settings: for MIC: Escherichia coli, K12STRAIN, read-out: MIC Escherichia coli K12
[8] = tested on: Escherichia coli BE1121 strain; test: MIC for Escherichia coli BE1121 strain; settings: for MIC: Escherichia coli, BE1121STRAIN, read-out: MIC Escherichia coli BE1121
[9] = tested on: Clostridium perfringens PB6K strain; test: microbe, parasite or virus in culture; settings: CD medium, 37° C. overnight, 10% CO2-containing anaerobic conditions; for MIC: Clostridium perfringens, PB6KSTRAIN, read-out: MIC Clostridium perfringens PB6K, PB6K strain
[10] = Smith strain, regular bouillon medium, 37° C. overnight, turbidity
[11] = 209P strain, regular bouillon medium, 37° C. overnight, turbidity
[12] = 5038 strain, Heart Infusion Broth medium, 37° C. overnight, turbidity
[13] = NCTC12201 strain (VRE), Heart Infusion Broth medium, 37° C. overnight, turbidity
[14] = MRSA No. 17, regular bouillon medium, 37° C. overnight, turbidity
[15] = K-12 strain, regular bouillon medium, 37° C. overnight, turbidity
[16] = BE1121 strain, regular bouillon medium, 37° C. overnight, turbidity

SMILES | MIC [1, 10] [µg/mL] | MIC [2] [µg/mL] | MIC [3, 11] [µg/mL] | MIC [4, 12] [µg/mL] | MIC [5, 13] [µg/mL] | MIC [6, 14] [µg/mL] | MIC [7, 15] [µg/mL] | MIC [8, 16] [µg/mL] | MIC [9] [µg/mL] | MIC [1] [µg/mL] | MIC ([4]; 5038STRAIN) [µg/mL] | MIC [5] [µg/mL] | MIC ([6]; MRSA) [µg/mL] | further results
CCCCNC(=O)N1C(=O)C(=C(O)C2CCC(CCCC)CC2)c2ccccc21 (stereo not drawn) [A015, N-(butylaminocarbonyl)-3-(4-butylcyclohexylcarbonyl)-2-oxyindole] | 256 (≈ 642 µM) | 4 (≈ 10 µM) | 256 (≈ 642 µM) | 8 (≈ 20.1 µM) | 8 (≈ 20.1 µM) | 256 (≈ 642 µM) | 256 (≈ 642 µM) | 256 (≈ 642 µM) | 8 (≈ 20.1 µM) | – | – | – | – | –
CCCCCCCCCC(=O)c1c(O)c2cc(Cl)ccc2oc1=O [B003, 6-chloro-3-decanoyl-4-hydroxycoumarin] | – | – | 2 (≈ 5.7 µM) | – | – | – | 256 (≈ 730 µM) | 256 (≈ 730 µM) | 0.25 (≈ 0.713 µM) | 0.5 (≈ 1.43 µM) | 0.5 (≈ 1.43 µM) | 0.25 (≈ 0.713 µM) | 2 (≈ 5.7 µM) | –
CCCCCOCC(=O)c1c(O)c2ccccc2oc1=O [B021, 4-hydroxy-3-(pentyloxyacetyl)coumarin] | – | 8 (≈ 27.6 µM) | – | – | – | – | – | – | 32 (≈ 110 µM) | 128 (≈ 441 µM) | 32 (≈ 110 µM) | 64 (≈ 220 µM) | 123 (≈ 424 µM) | MIC ([3]; 209P): 32 µg/mL (≈ 110 µM); MIC [7]: 128 µg/mL (≈ 441 µM); MIC [8]: 16 µg/mL (≈ 55.1 µM)
CCCCCCCCCCOCC(=O)c1c(O)c2cc(F)ccc2oc1=O [B019, 3-decyloxyacetyl-6-fluoro-4-hydroxycoumarin] | 256 (≈ 676 µM) | < 0.125 | 256 (≈ 676 µM) | 256 (≈ 676 µM) | 256 (≈ 676 µM) | 256 (≈ 676 µM) | 256 (≈ 676 µM) | 256 (≈ 676 µM) | < 0.125 | – | – | – | – | –
CCCCCCCCCC(O)=C1C(=O)N(C(=O)Nc2ccccc2C(F)(F)F)c2ccccc21 [A054, N-(2-(trifluoromethyl)phenylaminocarbonyl)-3-decanoyl-2-oxyindole] | 0.5 (≈ 1.05 µM) | < 0.125 | 2 (≈ 4.21 µM) | 1 (≈ 2.11 µM) | 1 (≈ 2.11 µM) | 2 (≈ 4.21 µM) | 256 (≈ 539 µM) | 256 (≈ 539 µM) | < 0.125 | – | – | – | – | –
CCCCCCCCCCOCC(=O)c1c(O)c2ccccc2oc1=O [B015, 3-decyloxyacetyl-4-hydroxycoumarin] | – | 0.25 (≈ 0.694 µM) | – | – | – | – | – | – | 25 (≈ 69.4 µM) | 2 (≈ 5.55 µM) | 4 (≈ 11.1 µM) | 2 (≈ 5.55 µM) | 8 (≈ 22.2 µM) | MIC ([3]; 209P): 8 µg/mL (≈ 22.2 µM); MIC [7]: 256 µg/mL (≈ 710 µM); MIC [8]: 128 µg/mL (≈ 355 µM)
CCCCC1CCC(C(O)=C2C(=O)N(C(=O)Nc3ccccc3)c3ccc(Br)cc32)CC1 (stereo not drawn) [A034, N-(phenylaminocarbonyl)-5-bromo-3-(4-butylcyclohexylcarbonyl)-2-oxyindole] | 1 (≈ 2.01 µM) | 0.5 (≈ 1.01 µM) | 32 (≈ 64.3 µM) | 1 (≈ 2.01 µM) | 1 (≈ 2.01 µM) | 64 (≈ 129 µM) | 128 (≈ 257 µM) | 128 (≈ 257 µM) | 0.5 (≈ 1.01 µM) | – | – | – | – | –
CCCCCCCCCCOC(C)C(=O)c1c(O)c2ccccc2oc1=O (stereo not drawn) [B017, 3-(2-decyloxypropionyl)-4-hydroxycoumarin] | – | < 0.125 | 8 (≈ 21.4 µM) | – | – | – | 256 (≈ 684 µM) | 256 (≈ 684 µM) | 0.25 (≈ 0.668 µM) | 2 (≈ 5.34 µM) | 1 (≈ 2.67 µM) | 0.5 (≈ 1.34 µM) | 4 (≈ 10.7 µM) | –
CCCCCCCCCCSCC(O)=C1C(=O)N(C(C)=O)c2ccc(Br)cc21 [A030, N-acetyl-5-bromo-3-decylthioacetyl-2-oxyindole] | 0.25 (≈ 0.534 µM) | < 0.125 | 2 (≈ 4.27 µM) | 0.25 (≈ 0.534 µM) | 0.25 (≈ 0.534 µM) | 2 (≈ 4.27 µM) | 256 (≈ 546 µM) | 8 (≈ 17.1 µM) | < 0.125 | – | – | – | – | –
CCCCCCCCCC(O)=C1C(=O)N(C(=O)Nc2ccc(OC)cc2)c2ccc(F)cc21 [A048, N-(4-methoxyphenylaminocarbonyl)-3-decanoyl-5-fluoro-2-oxyindole] | – | 32 (≈ 70.4 µM) | 256 (≈ 563 µM) | 128 (≈ 282 µM) | – | – | 256 (≈ 563 µM) | 256 (≈ 563 µM) | 256 (≈ 563 µM) | 256 (≈ 563 µM) | – | 256 (≈ 563 µM) | 256 (≈ 563 µM) | –
CCCCCCCCCC(O)=C1C(=O)N(C(=O)Nc2ccc(Br)cc2)c2ccccc21 [A039, N-(4-bromophenylaminocarbonyl)-3-decanoyl-2-oxyindole] | 256 (≈ 527 µM) | 64 (≈ 132 µM) | 256 (≈ 527 µM) | 256 (≈ 527 µM) | 256 (≈ 527 µM) | 256 (≈ 527 µM) | 256 (≈ 527 µM) | 256 (≈ 527 µM) | 64 (≈ 132 µM) | – | – | – | – | –
CCCCCCCCCCOCC(O)=C1C(=O)N(C(=O)OC(C)(C)C)c2ccc(F)cc21 [A055, N-Boc-3-decyloxyacetyl-5-fluoro-2-oxyindole] | 128 (≈ 285 µM) | 0.25 (≈ 0.556 µM) | 128 (≈ 285 µM) | 128 (≈ 285 µM) | 128 (≈ 285 µM) | 128 (≈ 285 µM) | 256 (≈ 569 µM) | 256 (≈ 569 µM) | 2 (≈ 4.45 µM) | – | – | – | – | –
CCCCC1CCC(C(O)=C2C(=O)N(C(=O)c3ccccc3)c3ccccc32)CC1 (stereo not drawn) [A014, N-benzoyl-3-(4-butylcyclohexylcarbonyl)-2-oxyindole] | 1 (≈ 2.48 µM) | 4 (≈ 9.91 µM) | 2 (≈ 4.96 µM) | 1 (≈ 2.48 µM) | 0.5 (≈ 1.24 µM) | 4 (≈ 9.91 µM) | 128 (≈ 317 µM) | 128 (≈ 317 µM) | 8 (≈ 19.8 µM) | – | – | – | – | –
CCCCCCCCOCC(O)=C1C(=O)N(C(=O)Nc2ccccc2)c2ccccc21 [A058, N-(phenylaminocarbonyl)-3-octyloxyacetyl-2-oxyindole] | 0.5 (≈ 1.18 µM) | < 0.125 | 64 (≈ 151 µM) | 0.25 (≈ 0.592 µM) | 0.25 (≈ 0.592 µM) | 128 (≈ 303 µM) | 128 (≈ 303 µM) | 128 (≈ 303 µM) | < 0.125 | – | – | – | – | –
CCCCCCCCCC(O)=C1C(=O)N(C)c2ccccc21 [A007, N-methyl-3-decanoyl-2-oxyindole] | 8 (≈ 26.5 µM) | 2 (≈ 6.64 µM) | – | 32 (≈ 106 µM) | 15 (≈ 49.8 µM) | 128 (≈ 425 µM) | – | – | 8 (≈ 26.5 µM) | – | – | – | – | MIC ([3]; 209P): 32 µg/mL (≈ 106 µM); MIC [7]: 256 µg/mL (≈ 849 µM); MIC [8]: 256 µg/mL (≈ 849 µM)
CCCCCCCCCC(=O)N1C(=O)C(=C(O)CCCCCCCCC)c2ccccc21 [A005, 1,3-didecanoyl-2-oxyindole] | 64 (≈ 145 µM) | 2 (≈ 4.53 µM) | 32 (≈ 72.5 µM) | 32 (≈ 72.5 µM) | 32 (≈ 72.5 µM) | 32 (≈ 72.5 µM) | 128 (≈ 290 µM) | 128 (≈ 290 µM) | 16 (≈ 36.2 µM) | – | – | – | – | –
CCCCCCCCCC(O)=C1C(=O)Nc2ccccc21 [A001, 3-decanoyl-2-oxyindole] | 32 (≈ 111 µM) | – | 16 (≈ 55.7 µM) | 16 (≈ 55.7 µM) | 16 (≈ 55.7 µM) | 32 (≈ 111 µM) | 256 (≈ 891 µM) | 256 (≈ 891 µM) | – | – | – | – | – | –
CCCCCCCCCC(=O)c1c(O)c2cc(F)ccc2oc1=O [B004, 3-decanoyl-6-fluoro-4-hydroxycoumarin] | – | – | 1 (≈ 2.99 µM) | – | – | – | 256 (≈ 766 µM) | 2 (≈ 5.98 µM) | 0.25 (≈ 0.748 µM) | 0.25 (≈ 0.748 µM) | 0.5 (≈ 1.5 µM) | 0.25 (≈ 0.748 µM) | 1 (≈ 2.99 µM) | –
CCCCCCCCCC(=O)N1C(=O)C(=C(O)c2ccc(F)cc2)c2ccccc21 [A061, N-decanoyl-3-(4-fluorobenzoyl)-2-oxyindole] | – | – | – | – | – | – | – | – | 2 (≈ 4.88 µM) | 2 (≈ 4.88 µM) | 4 (≈ 9.77 µM) | 4 (≈ 9.77 µM) | 64 (≈ 156 µM) | MIC ([3]; 209P): 128 µg/mL (≈ 313 µM); MIC [7]: 128 µg/mL (≈ 313 µM); MIC [8]: 128 µg/mL (≈ 313 µM)
CCCCCCCCCCOCC(O)=C1C(=O)N(C(=O)OC(C)(C)C)c2cc(Cl)ccc21 [A056, N-Boc-6-chloro-3-decyloxyacetyl-2-oxyindole] | – | – | – | – | – | – | – | – | – | – | – | – | – | MIC Clostridium difficile JCM1296 [2]: 4 µg/mL (≈ 8.58 µM); MIC Straphyrococcus aureus 209P [3, 11]: 256 µg/mL (≈ 549 µM); MIC Escherichia coli K12 [7, 15]: 256 µg/mL (≈ 549 µM); MIC Escherichia coli BE1121 [8, 16]: 256 µg/mL (≈ 549 µM); MIC Clostridium perfringens PB6K ([9]; PB6K strain): 0.5 µg/mL (≈ 1.07 µM)
